Laboratory results published in patent publication US20070270393A1, “Methods and compositions for modulation of sleep cycle” (priority 2006, published 2007).

Experiments:
subjects with insomnia = assay: Actigraphy measures of TST and WASO, outpatient portion of the insomnia study; type: in vivo, human; conditions: Tx (n = 2)
[1] = test system: HPA axis activity in healthy control subject; assay: 2 days of a GR antagonist in healthy control subject under constant routine conditions, salivary cortisol; type: in vivo, human; conditions: 400 mg for two consecutive days, single healthy subject, FIG. 5
Description: In a separate experiment, the longitudinal effects of 2 days of a GR antagonist on melatonin and HPA axis activity was measured in healthy control subject during an inpatient stay under constant routine conditions. […] Salivary cortisol, ACTH and dim light melatonin were measured the evening/morning before and on the second evening/morning of medication. The design was created to include measures of the phase of night-time DLMO as well as measures of the morning response of the HPA axis, including timing of cortisol acrophase. The design was formulated to ascertain circadian phase shifting in a controlled setting with healthy subjects (as might occur in jet-lag or shift work). […] Salivary melatonin samples were insufficient.

[2] = one study, Kawai (1989); cited from earlier work
[3] = target: T1, glucocorticoid (GR) receptors (Homo sapiens, UniProt P04150); conditions: literature; cited from earlier work
T1 sequence (P04150 1-777): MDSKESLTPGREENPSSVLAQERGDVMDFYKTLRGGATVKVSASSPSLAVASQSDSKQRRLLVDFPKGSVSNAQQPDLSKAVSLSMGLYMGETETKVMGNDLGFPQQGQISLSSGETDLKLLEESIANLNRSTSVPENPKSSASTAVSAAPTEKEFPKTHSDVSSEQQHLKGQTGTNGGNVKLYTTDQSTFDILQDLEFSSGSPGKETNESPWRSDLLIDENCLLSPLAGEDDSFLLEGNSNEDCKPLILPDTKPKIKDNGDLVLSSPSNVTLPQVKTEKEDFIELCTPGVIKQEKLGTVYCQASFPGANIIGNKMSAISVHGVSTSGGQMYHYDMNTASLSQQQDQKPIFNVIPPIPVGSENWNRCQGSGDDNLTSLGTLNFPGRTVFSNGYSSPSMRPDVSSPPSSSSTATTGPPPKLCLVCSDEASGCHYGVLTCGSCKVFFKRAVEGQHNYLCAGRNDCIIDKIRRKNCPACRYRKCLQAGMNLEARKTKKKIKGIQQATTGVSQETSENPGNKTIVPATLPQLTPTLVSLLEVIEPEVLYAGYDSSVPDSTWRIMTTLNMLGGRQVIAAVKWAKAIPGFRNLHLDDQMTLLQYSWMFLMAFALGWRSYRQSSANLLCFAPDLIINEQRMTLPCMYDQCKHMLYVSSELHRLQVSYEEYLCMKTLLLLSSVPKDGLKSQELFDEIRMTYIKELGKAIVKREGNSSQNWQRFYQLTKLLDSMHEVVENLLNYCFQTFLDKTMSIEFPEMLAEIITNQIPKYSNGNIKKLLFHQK

progesterone receptors = target: T2, progesterone receptors (Homo sapiens, UniProt P06401); conditions: literature; cited from earlier work
T2 sequence (P06401 1-933): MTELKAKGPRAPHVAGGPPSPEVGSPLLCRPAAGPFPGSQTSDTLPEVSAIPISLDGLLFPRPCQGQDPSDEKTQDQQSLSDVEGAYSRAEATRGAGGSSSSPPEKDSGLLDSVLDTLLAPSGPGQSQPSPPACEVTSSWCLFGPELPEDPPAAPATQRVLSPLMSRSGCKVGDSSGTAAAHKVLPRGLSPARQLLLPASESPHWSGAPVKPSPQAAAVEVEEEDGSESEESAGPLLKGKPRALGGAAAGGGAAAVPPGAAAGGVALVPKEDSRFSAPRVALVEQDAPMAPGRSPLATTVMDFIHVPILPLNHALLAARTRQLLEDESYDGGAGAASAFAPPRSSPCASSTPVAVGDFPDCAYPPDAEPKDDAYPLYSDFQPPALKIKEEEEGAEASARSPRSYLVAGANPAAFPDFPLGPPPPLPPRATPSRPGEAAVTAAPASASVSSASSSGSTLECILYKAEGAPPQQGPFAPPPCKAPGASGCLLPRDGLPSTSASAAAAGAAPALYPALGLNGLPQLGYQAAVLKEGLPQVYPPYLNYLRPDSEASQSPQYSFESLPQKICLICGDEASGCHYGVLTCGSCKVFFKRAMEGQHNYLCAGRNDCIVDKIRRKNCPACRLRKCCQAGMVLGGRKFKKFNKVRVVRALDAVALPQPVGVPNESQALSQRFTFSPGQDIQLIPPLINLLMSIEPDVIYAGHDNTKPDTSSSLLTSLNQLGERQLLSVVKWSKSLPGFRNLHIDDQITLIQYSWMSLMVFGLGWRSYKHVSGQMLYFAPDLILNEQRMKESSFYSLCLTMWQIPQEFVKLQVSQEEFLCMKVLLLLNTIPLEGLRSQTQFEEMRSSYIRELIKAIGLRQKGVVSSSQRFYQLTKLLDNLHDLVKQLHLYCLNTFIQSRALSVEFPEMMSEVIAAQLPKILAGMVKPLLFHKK

healthy male = conditions: given in the afternoon, Wiedemann 1992; cited from earlier work

## CC#C[C@]1(O)CC[C@H]2[C@@H]3CCC4=CC(=O)CCC4=C3[C@@H](c3ccc(N(C)C)cc3)C[C@@]21C [mifepristone, 17-beta-hydroxy-11-beta-(4-dimethyl-aminophenyl)-17-alpha-(1-propynyl)-estra-4,9-dien-3-one]
Subjects with insomnia; D7AV
  D7AV-smin (actigraphy TST): 458.86 min
  D7AV-waso (actigraphy WASO): 45.14
Subjects with insomnia; D20AV
  D20AV-smin (actigraphy TST): 448.40 min
  D20AV-waso (actigraphy WASO): 51.70
Subjects with insomnia; D26AV
  D26AV-smin (actigraphy TST): 473.08 min
  D26AV-waso (actigraphy WASO): 31.67
[1]
  cortisol: rise
  timing of the morning acrophase of cortisol: delay
[2]
  excreted in the urine: less than 0.5 % of the daily dose
[3]
  antagonist of glucocorticoid (GR) receptors: powerful antagonist
Progesterone receptors
  antagonist of progesterone receptors: powerful antagonist
Healthy male
  effect on sleep: significant worsening of sleep
